Assay type in all cases: cell-based
One assay addresses T1, hGCGR (Homo sapiens, UniProt P47871).
T1 construct: expressed in transfected cells
As to the kind of experiment: Functional cAMP formation (HTRF) in HEK-293 clonal cells expressing hGCGR, 0.1% bovine casein, without or with 1.0% human serum albumin. The method, boiled down:
(§1)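 Cells were stimulated with peptide for 30 min at 37° C, then lysed in buffer carrying cAMP-d2 and anti-cAMP Eu3+-cryptate for a competitive HTRF read after at least 60 min at room temperature. The 665/620 nm ratio was converted to nM cAMP against a standard curve.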
In general terms: Cyclic AMP is a second messenger, typically raised through Gs and lowered through Gi signalling.

In another assay the target is hGLP-1R (Homo sapiens, UniProt P43220). Description: Functional cAMP formation (HTRF) in HEK-293 clonal cells expressing hGLP-1R, 0.1% bovine casein, without or with 1.0% human serum albumin. Details: expressed in transfected cells. As to conditions: for EC50: geometric mean; for Emax: percent of maximal response to GLP-1(7-36)NH2. The method, boiled down:
as §1

In a further assay the target is T2, hGIPR (Homo sapiens, UniProt P48546).
T2 construct: expressed in transfected cells
T2 sequence (P48546 22-466): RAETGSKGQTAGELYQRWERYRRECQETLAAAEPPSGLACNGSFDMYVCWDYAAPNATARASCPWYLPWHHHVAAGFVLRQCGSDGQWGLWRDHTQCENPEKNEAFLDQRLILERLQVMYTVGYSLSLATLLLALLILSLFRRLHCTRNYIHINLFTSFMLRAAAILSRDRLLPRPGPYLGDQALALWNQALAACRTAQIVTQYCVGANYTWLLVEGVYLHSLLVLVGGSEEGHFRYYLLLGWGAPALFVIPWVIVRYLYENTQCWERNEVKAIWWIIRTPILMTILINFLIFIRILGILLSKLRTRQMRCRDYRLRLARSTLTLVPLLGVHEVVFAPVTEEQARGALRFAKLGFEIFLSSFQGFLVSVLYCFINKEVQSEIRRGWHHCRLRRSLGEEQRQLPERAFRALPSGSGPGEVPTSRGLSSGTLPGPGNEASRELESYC
As to the kind of experiment: Functional cAMP formation (HTRF) in HEK-293 clonal cells expressing hGIPR, 0.1% bovine casein, without or with 1.0% human serum albumin. As to conditions: for EC50: cAMP, 0.1% bovine casein (no human serum albumin), geometric mean. The method, boiled down: as §1

Where [1] appears, read: 0.1% bovine casein and 1.0% human serum albumin, 37° C., geometric mean, read-out: hGCGR EC50, nM (SEM, n).
Where [2] appears, read: cAMP, incubated at 37° C., 0.1% bovine casein (no human serum albumin), geometric mean, read-out: hGCGR EC50, nM (SEM, n).
Where [3] appears, read: cAMP, incubated at 37° C., 0.1% bovine casein (no human serum albumin), read-out: hGLP-1R EC50, nM (SEM, n).
The mark [4] stands for this setting: HEK293, 0.1% bovine casein and 1.0% human serum albumin, 37° C., percent of maximal response to GIP(1-42)NH2, read-out: hGIPR Emax, % ± SEM.
Setting [5] is: incubated at 37° C., read-out: hGIPR EC50, nM (SEM, n).

The structures appear in SMILES notation. Like-named read-outs stand apart in the source and are kept apart here.

hGLP-1R, sequence (P43220 24-463): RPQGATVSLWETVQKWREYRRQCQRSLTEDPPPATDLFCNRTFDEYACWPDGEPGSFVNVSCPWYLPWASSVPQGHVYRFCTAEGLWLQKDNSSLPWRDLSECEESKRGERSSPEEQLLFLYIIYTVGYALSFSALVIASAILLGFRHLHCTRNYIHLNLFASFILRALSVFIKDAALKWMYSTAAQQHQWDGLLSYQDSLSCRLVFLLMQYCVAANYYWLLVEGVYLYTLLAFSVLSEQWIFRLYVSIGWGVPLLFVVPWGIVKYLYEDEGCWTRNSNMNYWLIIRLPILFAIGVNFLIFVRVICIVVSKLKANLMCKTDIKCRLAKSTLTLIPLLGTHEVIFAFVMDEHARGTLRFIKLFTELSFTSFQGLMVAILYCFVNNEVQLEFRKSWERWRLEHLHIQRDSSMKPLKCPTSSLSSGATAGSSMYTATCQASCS
T1 sequence (P47871 26-477): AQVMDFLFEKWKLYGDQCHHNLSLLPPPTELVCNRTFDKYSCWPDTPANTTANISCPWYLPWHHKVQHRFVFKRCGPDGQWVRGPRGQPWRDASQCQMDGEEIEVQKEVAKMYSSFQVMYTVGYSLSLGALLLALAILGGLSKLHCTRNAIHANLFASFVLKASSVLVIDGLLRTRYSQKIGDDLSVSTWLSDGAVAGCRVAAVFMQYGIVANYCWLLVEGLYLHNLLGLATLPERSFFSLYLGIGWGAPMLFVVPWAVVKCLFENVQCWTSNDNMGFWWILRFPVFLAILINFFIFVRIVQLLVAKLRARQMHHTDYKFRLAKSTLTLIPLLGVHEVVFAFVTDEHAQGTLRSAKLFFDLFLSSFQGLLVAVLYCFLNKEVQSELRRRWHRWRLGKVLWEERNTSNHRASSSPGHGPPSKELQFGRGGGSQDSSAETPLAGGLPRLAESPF

Regarding `CC[C@H](C)[C@H](NC(=O)[C@H](CCCN)NC(=O)[C@H](CC(=O)O)NC(=O)[C@H](CC(C)C)NC(=O)[C@](C)(CC(C)C)NC(=O)[C@@H](NC(=O)[C@H](CO)NC(=O)[C@H](Cc1ccncc1)NC(=O)[C@H](CC(=O)O)NC(=O)[C@H](CO)NC(=O)[C@@H](NC(=O)[C@](C)(Cc1ccccc1F)NC(=O)[C@@H](NC(=O)CNC(=O)[C@H](CCC(=O)O)NC(=O)C(C)(C)NC(=O)[C@@H](N)Cc1ccc(O)cc1)[C@@H](C)O)[C@@H](C)O)[C@@H](C)CC)C(=O)N[C@@H](C)C(=O)N[C@@H](CCC(N)=O)C(=O)NC(C)(C)C(=O)N[C@@H](CCC(=O)O)C(=O)N[C@@H](Cc1ccccc1)C(=O)N[C@H](C(=O)N[C@@H](CCCCNC(=O)COCCOCCNC(=O)COCCOCCNC(=O)CCCCCCCCCCCCC(=O)O)C(=O)N[C@@](C)(Cc1ccc(O)cc1)C(=O)N[C@@H](CC(C)C)C(=O)N[C@H](C(=O)N[C@@H](CCC(=O)O)C(=O)NCC(=O)NCC(=O)N[C@@H](CCCCNC(=O)COCCOCCNC(=O)COCCOCCNC(=O)CCCCCCCCCCCCC(=O)O)C(=O)N[C@@H](CO)C(=O)N[C@@H](CO)C(=O)NCC(=O)N[C@@H](C)C(=O)N1CCC[C@H]1C(=O)N1CCC[C@H]1C(=O)N1CCC[C@H]1C(=O)N[C@@H](CO)C(N)=O)[C@@H](C)CC)[C@@H](C)CC` [Example 193], the EC50 is more than 9950 nM on hGCGR (setting [1]); more than 9950 nM on hGCGR (setting [2]); 24.3 nM on hGLP-1R (0.1% bovine casein and 1.0% human serum albumin, 37° C., read-out: hGLP-1R EC50, nM (SEM, n)); 0.382 nM on hGLP-1R (setting [3]); 0.0201 nM on hGIPR (setting [5]). Further, the Emax was determined as 92.2 ± 0.24% on hGIPR (setting [4]) and 97.2 ± 4.63% on hGIPR (HEK293, percent of maximal response to GIP(1-42)NH2, 37° C., 0.1% bovine casein, arithmetic mean, read-out: hGIPR Emax, % ± SEM).
As to `CC[C@H](C)[C@H](NC(=O)[C@H](CC(C)C)NC(=O)[C@](C)(Cc1ccc(O)cc1)NC(=O)[C@@H](CCC(=O)O)NC(=O)[C@@H](NC(=O)[C@H](Cc1ccccc1)NC(=O)[C@H](CCC(=O)O)NC(=O)C(C)(C)NC(=O)[C@H](CCC(N)=O)NC(=O)[C@H](C)NC(=O)[C@H](CCCCNC(=O)COCCOCCNC(=O)COCCOCCNC(=O)CC[C@H](NC(=O)CCCCCCCCCCCCC(=O)O)C(=O)O)NC(=O)[C@H](CCCN)NC(=O)[C@H](CC(=O)O)NC(=O)[C@H](CC(C)C)NC(=O)[C@](C)(CC(C)C)NC(=O)[C@@H](NC(=O)C(C)(C)NC(=O)[C@H](Cc1ccc(O)cc1)NC(=O)[C@H](CC(=O)O)NC(=O)[C@H](CO)NC(=O)[C@@H](NC(=O)[C@](C)(Cc1ccccc1F)NC(=O)[C@@H](NC(=O)CNC(=O)[C@H](CCC(=O)O)NC(=O)C(C)(C)NC(=O)[C@@H](N)Cc1ccc(O)cc1)[C@@H](C)O)[C@@H](C)O)[C@@H](C)CC)[C@@H](C)CC)C(=O)N[C@@H](CCC(=O)O)C(=O)NCC(=O)NCC(=O)N1CCC[C@H]1C(=O)N[C@@H](CO)C(=O)N[C@@H](CO)C(=O)NCC(=O)N[C@@H](C)C(=O)N1CCC[C@H]1C(=O)N1CCC[C@H]1C(=O)N1CCC[C@H]1C(=O)N[C@@H](CO)C(=O)N[C@@H](CCCCNC(=O)COCCOCCNC(=O)COCCOCCNC(=O)CC[C@H](NC(=O)CCCCCCCCCCCCC(=O)O)C(=O)O)C(N)=O` [Example 232], the EC50 on hGCGR (setting [1]) was more than 9950 nM; on hGCGR (setting [2]), more than 9950 nM; on hGLP-1R (setting [3]) it was 0.565 nM; on hGIPR (setting [5]), 0.0192 nM. Besides, the maximum response (Emax) on hGLP-1R (HEK293, 0.1% bovine casein and 1.0% human serum albumin, 37° C., read-out: hGLP-1R Emax, % ± SEM) stood at 95.4%; at hGIPR (setting [4]) it was 91.5%.
Regarding `CC[C@H](C)[C@H](NC(=O)[C@H](CC(C)C)NC(=O)[C@](C)(Cc1ccc(O)cc1)NC(=O)[C@@H](CCC(=O)O)NC(=O)[C@@H](NC(=O)[C@H](Cc1ccccc1)NC(=O)[C@H](CCCCNC(=O)COCCOCCNC(=O)COCCOCCNC(=O)CC[C@H](NC(=O)CCCCCCCCCCCCC(=O)O)C(=O)O)NC(=O)C(C)(C)NC(=O)[C@H](CCC(N)=O)NC(=O)[C@H](C)NC(=O)[C@H](CCCCNC(=O)COCCOCCNC(=O)COCCOCCNC(=O)CC[C@H](NC(=O)CCCCCCCCCCCCC(=O)O)C(=O)O)NC(=O)[C@H](CCCN)NC(=O)[C@H](CC(=O)O)NC(=O)[C@H](CC(C)C)NC(=O)[C@](C)(CC(C)C)NC(=O)[C@@H](NC(=O)C(C)(C)NC(=O)[C@H](Cc1ccncc1)NC(=O)[C@H](CC(=O)O)NC(=O)[C@H](CO)NC(=O)[C@@H](NC(=O)[C@](C)(Cc1ccccc1F)NC(=O)[C@@H](NC(=O)CNC(=O)[C@H](CCC(=O)O)NC(=O)C(C)(C)NC(=O)[C@@H](N)Cc1ccc(O)cc1)[C@@H](C)O)[C@@H](C)O)[C@@H](C)CC)[C@@H](C)CC)C(=O)N[C@@H](CCC(=O)O)C(=O)NCC(=O)NCC(=O)N1CCC[C@H]1C(=O)N[C@@H](CO)C(=O)N[C@@H](CO)C(=O)NCC(=O)N[C@@H](C)C(=O)N1CCC[C@H]1C(=O)N1CCC[C@H]1C(=O)N1CCC[C@H]1C(=O)N[C@@H](CO)C(N)=O` [Example 357], the concentration giving a half-maximal response (EC50) on hGCGR (cAMP, 37° C., 0.1% bovine casein (no human serum albumin), geometric mean, read-out: hGCGR EC50, nM (SEM, n)) is more than 10100 nM; at hGCGR (cAMP, 37° C., 0.1% bovine casein and 1.0% human serum albumin, geometric mean (SEM, n), read-out: hGCGR EC50, nM (SEM, n)), more than 9950 nM; at hGLP-1R (cAMP, 37° C., 0.1% bovine casein (no human serum albumin), read-out: hGLP-1R EC50, nM (SEM, n)), 0.649 nM; on hGIPR (37° C., read-out: hGIPR EC50, nM (SEM, n)), 0.011 nM. The Emax on hGLP-1R (HEK293, cAMP, 37° C., 0.1% bovine casein and 1.0% human serum albumin, read-out: hGLP-1R Emax, % ± SEM) was 92.8%; at hGIPR (HEK293, cAMP, 37° C., 0.1% bovine casein and 1.0% human serum albumin, percent of maximal response to GIP(1-42)NH2, read-out: hGIPR Emax, % ± SEM), 78.2%.
Regarding `CC[C@H](C)[C@H](NC(=O)[C@H](CCCN)NC(=O)[C@H](CC(=O)O)NC(=O)[C@H](CC(C)C)NC(=O)[C@](C)(CC(C)C)NC(=O)[C@@H](NC(=O)C(C)(C)NC(=O)[C@H](Cc1ccc(O)cc1)NC(=O)[C@H](CC(=O)O)NC(=O)[C@H](CO)NC(=O)[C@@H](NC(=O)[C@](C)(Cc1ccccc1F)NC(=O)[C@@H](NC(=O)CNC(=O)[C@H](CCC(=O)O)NC(=O)C(C)(C)NC(=O)[C@@H](N)Cc1ccc(O)cc1)[C@@H](C)O)[C@@H](C)O)[C@@H](C)CC)C(=O)N[C@@H](C)C(=O)N[C@@H](CCC(N)=O)C(=O)NC(C)(C)C(=O)N[C@@H](CCC(=O)O)C(=O)N[C@@H](Cc1ccccc1)C(=O)N[C@H](C(=O)N[C@@H](CCCCNC(=O)COCCOCCNC(=O)COCCOCCNC(=O)CC[C@H](NC(=O)CCCCCCCCCOc1ccc(C(=O)O)cc1)C(=O)O)C(=O)N[C@@](C)(Cc1ccc(O)cc1)C(=O)N[C@@H](CC(C)C)C(=O)N[C@H](C(=O)N[C@@H](CCCCNC(=O)COCCOCCNC(=O)COCCOCCNC(=O)CC[C@H](NC(=O)CCCCCCCCCOc1ccc(C(=O)O)cc1)C(=O)O)C(=O)NCC(=O)NCC(=O)N1CCC[C@H]1C(=O)N[C@@H](CO)C(=O)N[C@@H](CO)C(=O)NCC(=O)N[C@@H](C)C(=O)N1CCC[C@H]1C(=O)N1CCC[C@H]1C(=O)N1CCC[C@H]1C(=O)N[C@@H](CO)C(N)=O)[C@@H](C)CC)[C@@H](C)CC` [Example 239], the half-maximal effective concentration (EC50) at hGCGR (hGCGR EC50, nM (SEM, n), 0.1% bovine casein and 1.0% human serum albumin, 37° C., geometric mean) was more than 9950 nM; on hGCGR (hGCGR EC50, nM (SEM, n), cAMP, incubated at 37° C., 0.1% bovine casein (no human serum albumin), geometric mean), more than 9950 nM; at hGLP-1R (hGLP-1R EC50, nM (SEM, n), cAMP, incubated at 37° C., 0.1% bovine casein (no human serum albumin)), 0.546 nM; on hGIPR (hGIPR EC50, nM (SEM, n), incubated at 37° C.), 0.0328 nM. The maximal effect (Emax) on hGLP-1R (HEK293, read-out: hGLP-1R Emax, % ± SEM, 0.1% bovine casein and 1.0% human serum albumin, 37° C.) worked out at 109%; at hGIPR (HEK293, read-out: hGIPR Emax, % ± SEM, 0.1% bovine casein and 1.0% human serum albumin, 37° C., percent of maximal response to GIP(1-42)NH2), 89.1%.

Broadly, the EC50 is the concentration at which the effect is half-maximal. Broadly, the Emax is the size of the effect at its maximum, as opposed to the concentration needed.

These data come from US20230265151A1, “GIP/GLP1 CO-AGONIST COMPOUNDS” (priority 2020, published 2023).
